Laboratory results: patent publication US8722849B2, “Polypeptides” (Novo Nordisk A/S, priority 2011, dated 2014)
Starred links: 1 amine or outer side, 2 acyl side, 3 side chain; linkers in the order of their positions; H or OH if unused. Positions of bridges follow the written chain, without caps; N, C: chain ends. Residues, ends and D or L forms follow the SMILES beside them. *: point of attachment. C20 diacid = O=C(O)CCCCCCCCCCCCCCCCCCC(=O)*; C18 diacid = O=C(O)CCCCCCCCCCCCCCCCC(=O)*; γGlu = O=C(O)[C@H](CCC(=O)[*:2])N[*:1]

Tests used:
Type in all cases: cell-based
[1] = target: T1, rat calcitonin (a) receptor (Rattus norvegicus, UniProt P32214); assay: Assay (II)b functional cAMP FlashPlate assay, rat calcitonin receptor; details: Table 11; read-out: CTa receptor rat EC50
T1 construct: expressed in transfected cells; host or cells: BHK tk'ts 13
T1 sequence (P32214 25-479 isoform P32214-2 limits assumed): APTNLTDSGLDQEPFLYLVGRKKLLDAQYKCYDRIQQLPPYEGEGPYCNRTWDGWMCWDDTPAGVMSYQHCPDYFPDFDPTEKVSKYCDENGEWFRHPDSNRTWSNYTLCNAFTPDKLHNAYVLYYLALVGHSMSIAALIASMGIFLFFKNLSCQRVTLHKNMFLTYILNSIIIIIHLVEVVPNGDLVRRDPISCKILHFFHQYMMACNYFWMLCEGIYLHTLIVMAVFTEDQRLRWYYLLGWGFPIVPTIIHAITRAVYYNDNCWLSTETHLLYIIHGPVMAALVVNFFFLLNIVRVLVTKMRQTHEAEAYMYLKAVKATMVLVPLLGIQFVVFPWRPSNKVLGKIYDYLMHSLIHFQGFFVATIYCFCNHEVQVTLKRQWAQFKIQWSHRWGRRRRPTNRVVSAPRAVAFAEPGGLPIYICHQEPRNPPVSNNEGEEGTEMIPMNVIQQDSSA
Outline: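 cAMP accumulation in transiently transfected BHK tk'ts 13 cells, 100.000 cells/well, expressing rat calcitonin(a) receptor or its RAMP3 co-expression form (amylin 3(a)): 30 min stimulation with IBMX, 24 hours post-transfection. Readout by competition of cellular versus radiolabelled cAMP in FlashPlates, scintillation counted after 3 h.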

[2] = target: T2, human amylin receptor (amylin 3(a) receptor: human calcitonin receptor + RAMP-3) (Homo sapiens, UniProt O60896+P30988); assay: Assay (II)a functional CRE-luciferase assay, human amylin receptor; details: Table 2; BHK amylin 3(a)-receptor/CRE-luc cells
T2 construct: expressed in transfected cells; host or cells: BHK570
T2 sequence (P30988 25-474): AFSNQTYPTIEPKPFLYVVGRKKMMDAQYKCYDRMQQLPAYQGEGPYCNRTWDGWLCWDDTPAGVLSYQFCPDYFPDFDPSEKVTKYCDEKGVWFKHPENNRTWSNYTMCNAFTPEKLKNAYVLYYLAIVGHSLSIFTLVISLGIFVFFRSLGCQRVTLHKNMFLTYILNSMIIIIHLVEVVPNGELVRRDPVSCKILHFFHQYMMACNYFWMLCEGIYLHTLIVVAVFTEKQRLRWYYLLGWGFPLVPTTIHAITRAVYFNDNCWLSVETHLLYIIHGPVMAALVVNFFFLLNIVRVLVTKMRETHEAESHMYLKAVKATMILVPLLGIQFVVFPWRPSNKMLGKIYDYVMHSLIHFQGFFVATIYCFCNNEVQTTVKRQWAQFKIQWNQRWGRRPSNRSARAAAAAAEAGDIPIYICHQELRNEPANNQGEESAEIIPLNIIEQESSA
T2 sequence (O60896 24-148 partner): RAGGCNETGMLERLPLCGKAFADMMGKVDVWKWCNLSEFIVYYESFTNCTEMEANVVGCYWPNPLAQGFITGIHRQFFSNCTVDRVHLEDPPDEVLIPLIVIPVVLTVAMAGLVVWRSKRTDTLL

[3] = target: T3, human calcitonin receptor (Homo sapiens, UniProt P30988); assay: Assay (II)a functional CRE-luciferase assay, human calcitonin receptor; details: Table 7; human calcitonin (CTa) receptor
T3 construct: expressed in transfected cells; host or cells: BHK570
T3 sequence (P30988 25-474): T2 sequence (P30988 25-474)

SMILES | EC50 [1] [pM] | EC50 [2] [pM] | EC50 [3] [pM]
CC[C@H](C)[C@H](NC(=O)[C@@H]1CCCN1C(=O)CNC(=O)[C@H](Cc1ccccc1)NC(=O)[C@H](CC(N)=O)NC(=O)[C@H](CC(N)=O)NC(=O)[C@H](CO)NC(=O)[C@H](CO)NC(=O)[C@H](Cc1c[nH]cn1)NC(=O)[C@H](Cc1c[nH]cn1)NC(=O)[C@H](CC(C)C)NC(=O)[C@H](Cc1ccccc1)NC(=O)[C@H](CCC(=O)O)NC(=O)[C@H](C)NC(=O)[C@H](CC(C)C)NC(=O)[C@H](CCCNC(=N)N)NC(=O)[C@H](CCC(N)=O)NC(=O)[C@@H](NC(=O)[C@H](C)NC(=O)[C@@H]1CSSC[C@H](NC(=O)[C@H](Cc2c[nH]cn2)NC(=O)[C@H](Cc2c[nH]cn2)NC(=O)[C@H](Cc2c[nH]cn2)NC(=O)CC[C@H](NC(=O)CCCCCCCCCCCCCCCCCCC(=O)O)C(=O)O)C(=O)N[C@@H](CC(N)=O)C(=O)N[C@@H]([C@@H](C)O)C(=O)N[C@@H](C)C(=O)N[C@@H]([C@@H](C)O)C(=O)N1)[C@@H](C)O)C(=O)N[C@@H](CC(C)C)C(=O)N1CCC[C@H]1C(=O)N1CCC[C@H]1C(=O)N[C@H](C(=O)N[C@@H](CC(N)=O)C(=O)N[C@H](C(=O)NCC(=O)N[C@@H](CO)C(=O)N[C@@H](Cc1c[nH]cn1)C(=O)N[C@H](C(=O)N[C@@H](Cc1ccc(O)cc1)C(N)=O)[C@@H](C)O)C(C)C)[C@@H](C)O [Example 31, N-alpha-[(S)-4-Carboxy-4-(19-carboxynonadecanoylamino)butyryl]-His-His-[His1,Glu14,His17,His35]-pramlintide] ({C20 diacid-γGlu}-HHHCNTATCATQRLAEFLHHSSNNFGPILPPTNVGSHTY-NH2; disulfide 4-9 (inferred); C-terminus assumed) | 1310 | 164 | 156
CC[C@H](C)[C@H](NC(=O)[C@@H]1CCCN1C(=O)CNC(=O)[C@H](Cc1ccccc1)NC(=O)[C@H](CC(N)=O)NC(=O)[C@H](CC(N)=O)NC(=O)[C@H](CO)NC(=O)[C@H](CO)NC(=O)[C@H](Cc1c[nH]cn1)NC(=O)[C@H](Cc1c[nH]cn1)NC(=O)[C@H](CC(C)C)NC(=O)[C@H](Cc1ccccc1)NC(=O)[C@H](CCC(=O)O)NC(=O)[C@H](C)NC(=O)[C@H](CC(C)C)NC(=O)[C@H](CCCNC(=N)N)NC(=O)[C@H](CCC(N)=O)NC(=O)[C@@H](NC(=O)[C@H](C)NC(=O)[C@@H]1CSSC[C@H](NC(=O)[C@H](Cc2c[nH]cn2)NC(=O)[C@H](Cc2c[nH]cn2)NC(=O)[C@H](Cc2c[nH]cn2)NC(=O)CC[C@H](NC(=O)CCCCCCCCCCCCCCCCCCC(=O)O)C(=O)O)C(=O)N[C@@H](Cc2c[nH]cn2)C(=O)N[C@@H]([C@@H](C)O)C(=O)N[C@@H](C)C(=O)N[C@@H]([C@@H](C)O)C(=O)N1)[C@@H](C)O)C(=O)N[C@@H](CC(C)C)C(=O)N1CCC[C@H]1C(=O)N1CCC[C@H]1C(=O)N[C@H](C(=O)N[C@@H](CC(N)=O)C(=O)N[C@H](C(=O)NCC(=O)N[C@@H](CO)C(=O)N[C@@H](Cc1c[nH]cn1)C(=O)N[C@H](C(=O)N[C@@H](Cc1ccc(O)cc1)C(N)=O)[C@@H](C)O)C(C)C)[C@@H](C)O [Example 32, N-alpha-[(S)-4-Carboxy-4-(19-carboxynonadecanoylamino)butyryl]-His-His-[His1,His3,Glu14,His17,His35]-pramlintide] ({C20 diacid-γGlu}-HHHCHTATCATQRLAEFLHHSSNNFGPILPPTNVGSHTY-NH2; disulfide 4-9 (inferred)) | 4870 | 603 | 543
CC[C@H](C)[C@H](NC(=O)[C@@H]1CCCN1C(=O)CNC(=O)[C@H](Cc1ccccc1)NC(=O)[C@H](CC(N)=O)NC(=O)[C@H](CC(N)=O)NC(=O)[C@H](CO)NC(=O)[C@H](CO)NC(=O)[C@H](Cc1c[nH]cn1)NC(=O)[C@H](Cc1c[nH]cn1)NC(=O)[C@H](CC(C)C)NC(=O)[C@H](Cc1ccccc1)NC(=O)[C@H](CCC(=O)O)NC(=O)[C@H](C)NC(=O)[C@H](CC(C)C)NC(=O)[C@H](CCCNC(=N)N)NC(=O)[C@H](CCC(N)=O)NC(=O)[C@@H](NC(=O)[C@H](C)NC(=O)[C@@H]1CSSC[C@H](NC(=O)[C@H](CCCCN)NC(=O)[C@H](CCC(=O)O)NC(=O)CC[C@H](NC(=O)CCCCCCCCCCCCCCCCC(=O)O)C(=O)O)C(=O)N[C@@H](CC(N)=O)C(=O)N[C@@H]([C@@H](C)O)C(=O)N[C@@H](C)C(=O)N[C@@H]([C@@H](C)O)C(=O)N1)[C@@H](C)O)C(=O)N[C@@H](CC(C)C)C(=O)N1CCC[C@H]1C(=O)N1CCC[C@H]1C(=O)N[C@H](C(=O)N[C@@H](CC(N)=O)C(=O)N[C@H](C(=O)NCC(=O)N[C@@H](CO)C(=O)N[C@@H](CC(N)=O)C(=O)N[C@H](C(=O)N[C@@H](Cc1ccc(O)cc1)C(N)=O)[C@@H](C)O)C(C)C)[C@@H](C)O [Example 42, N-alpha-[(S)-4-Carboxy-4-(17-carboxyheptadecanoylamino)butyryl]-Glu-[Glu14,His17]-pramlintide] ({C18 diacid-γGlu}-EKCNTATCATQRLAEFLHHSSNNFGPILPPTNVGSNTY-NH2; disulfide 3-8 (inferred)) | 2430 | 73.9 | 274
CC[C@H](C)[C@H](NC(=O)[C@@H]1CCCN1C(=O)CNC(=O)[C@H](Cc1ccccc1)NC(=O)[C@H](CC(N)=O)NC(=O)[C@H](CC(N)=O)NC(=O)[C@H](CO)NC(=O)[C@H](CO)NC(=O)[C@H](Cc1c[nH]cn1)NC(=O)[C@H](Cc1c[nH]cn1)NC(=O)[C@H](CC(C)C)NC(=O)[C@H](Cc1ccccc1)NC(=O)[C@H](CCC(=O)O)NC(=O)[C@H](C)NC(=O)[C@H](CC(C)C)NC(=O)[C@H](CCCNC(=N)N)NC(=O)[C@H](CCC(N)=O)NC(=O)[C@@H](NC(=O)[C@H](C)NC(=O)[C@@H]1CSSC[C@H](NC(=O)[C@H](CCCCN)NC(=O)CC[C@H](NC(=O)CCCCCCCCCCCCCCCCC(=O)O)C(=O)O)C(=O)N[C@@H](CC(N)=O)C(=O)N[C@@H]([C@@H](C)O)C(=O)N[C@@H](C)C(=O)N[C@@H]([C@@H](C)O)C(=O)N1)[C@@H](C)O)C(=O)N[C@@H](CC(C)C)C(=O)N1CCC[C@H]1C(=O)N1CCC[C@H]1C(=O)N[C@H](C(=O)N[C@@H](CC(N)=O)C(=O)N[C@H](C(=O)NCC(=O)N[C@@H](CO)C(=O)N[C@@H](CC(N)=O)C(=O)N[C@H](C(=O)N[C@@H](Cc1ccc(O)cc1)C(N)=O)[C@@H](C)O)C(C)C)[C@@H](C)O [Example 46, N-alpha-[(S)-4-Carboxy-4-(17-carboxyheptadecanoylamino)butyryl]-[Glu14,His17]-pramlintide] ({C18 diacid-γGlu}-KCNTATCATQRLAEFLHHSSNNFGPILPPTNVGSNTY-NH2; disulfide 2-7 (inferred); C-terminus assumed) | 433 | 46.9 | 79.2
CC[C@H](C)[C@H](NC(=O)[C@@H]1CCCN1C(=O)CNC(=O)[C@H](Cc1ccccc1)NC(=O)[C@H](CC(N)=O)NC(=O)[C@H](CC(N)=O)NC(=O)[C@H](CO)NC(=O)[C@H](CO)NC(=O)[C@H](Cc1c[nH]cn1)NC(=O)[C@H](Cc1c[nH]cn1)NC(=O)[C@H](CC(C)C)NC(=O)[C@H](Cc1ccccc1)NC(=O)[C@H](CCC(=O)O)NC(=O)[C@H](C)NC(=O)[C@H](CC(C)C)NC(=O)[C@H](CCCNC(=N)N)NC(=O)[C@H](CCC(N)=O)NC(=O)[C@@H](NC(=O)[C@H](C)NC(=O)[C@@H]1CSSC[C@H](NC(=O)[C@H](Cc2c[nH]cn2)NC(=O)CC[C@H](NC(=O)CCCCCCCCCCCCCCCCC(=O)O)C(=O)O)C(=O)N[C@@H](CC(N)=O)C(=O)N[C@@H]([C@@H](C)O)C(=O)N[C@@H](C)C(=O)N[C@@H]([C@@H](C)O)C(=O)N1)[C@@H](C)O)C(=O)N[C@@H](CC(C)C)C(=O)N1CCC[C@H]1C(=O)N1CCC[C@H]1C(=O)N[C@H](C(=O)N[C@@H](CC(N)=O)C(=O)N[C@H](C(=O)NCC(=O)N[C@@H](CO)C(=O)N[C@@H](CC(N)=O)C(=O)N[C@H](C(=O)N[C@@H](Cc1ccc(O)cc1)C(N)=O)[C@@H](C)O)C(C)C)[C@@H](C)O [Example 48, N-alpha-[(S)-4-Carboxy-4-(17-carboxyheptadecanoylamino)butyryl]-[His1,Glu14,His17]-pramlintide] ({C18 diacid-γGlu}-HCNTATCATQRLAEFLHHSSNNFGPILPPTNVGSNTY-NH2; disulfide 2-7 (inferred)) | 375 | 42.5 | 112
